Source: paper PMC12428554, “Anti-HIV and Antimicrobial Activity of 7-Hydrazino-8-hydroxyquinoline-Based Aromatic Hydrazones” (International Journal of Molecular Sciences, 2025)
In brackets after ≈: the same amount, converted by molar mass.

Experiments:
MTT cytotoxicity assay = assay type: cell-based; conditions: human, Huh-7.5 cells
Description: Huh7.5 cells were grown in the DMEM/F12 (2:1) medium supplemented with 10% FBS (BioSera, Cholet, France), 2 mM L-glutamine, 100 U/mL penicillin, and 100 µg/mL streptomycin in the presence of 5% CO2 at 37 °C. Cells were re-seeded every three days at a ratio of 1:3 or 1:5. Stock solutions were diluted in DMSO (BioReagent of molecular biology grade, Sigma, St. Louis, MO, USA), and the final DMSO concentration was 1%. After 24 h (30–40% monolayer), the solutions of the studied compounds diluted at different concentrations were introduced to the culture medium. After incubation at 37 °C in 5% CO2 for 48 h, a freshly prepared solution of thiazolyl blue tetrazolium bromide at a final concentration of 0.4 mg/mL was added to each well of the plate. Incubation was performed at +37 °C for 2 h. The medium containing unreacted MTT was removed via aspiration. The formed formazan dye was dissolved in 100 µL of isopropanol added to each well of the plate. The result of the analysis was evaluated using a Tecan Spark multimode microplate reader (Tecan Group Ltd., Männedorf, Switzerland) via absorbance at 544 nm.

[1] = tested on: HIV-1 (subtype B) in MT-4 cells; assay: Antigen p24 assay in HIV-infected MT-4 cells; assay type: cell-based; conditions: Human immunodeficiency virus 1, MT4; HIV-1 899A strain (subtype B), third day after infection
Description: The human MT-4 lymphoblastoid cells were cultured in RPMI 1640 medium supplemented with 10% fetal bovine serum (FBS) (HyClone, Logan, UT, USA), 2 mM L-glutamine, 50 U/mL penicillin, and 50 μg/mL streptomycin in a humidified atmosphere of 5% CO2 at 37 °C. The cells were re-seeded at a density of 3.0 × 10^5 cells/mL every three days. The HIV-1_899A strain (subtype B) was used from the collection of human immunodeficiency virus strains of the D.I. Ivanovsky Institute of Virology, N. F. Gamaleya National Research Center of Epidemiology and Microbiology, Ministry of Health, Moscow, Russia. The commercial drug Efavirenz (EFV), a non-nucleoside inhibitor of HIV reverse transcriptase, was used as a positive control. HIV-1 was added to the cells at 0.1 CCID50 (50% cell culture infectious dose). The cells, both infected and non-infected, were then incubated at 37 °C in a humidified atmosphere containing 5% CO2 for a 40 min period, after which the cells were washed twice in serum-free RPMI 1640 and plated into the wells of a 96-well plate. The tested compounds were then added to the cells at concentrations from 0.5 μM to 100 μM. The final ethanol concentration was 1% v/v. On the third day after infection, the culture fluid was collected for determining the amount of p24 antigen by enzyme immunoassay analysis using a commercial test system kit (Genscreen ULTRA HIV Ag-Ab, Bio-Rad, Hercules, CA, USA). Cell viability was measured by MTT assay.

Ku70–DNA complex = target: T1, Ku70–DNA complex (Homo sapiens, UniProt P12956); assay: EMSA of Ku70/Ku80–DNA complex formation; assay type: binding; conditions: 12.8 nM Ku heterodimer, 4 nM labelled 40 mer DNA duplex, read-out: IC50, inhibition of Ku70–DNA complex formation
T1 construct: made in house; host or cells: Escherichia coli
Description: A bicistronic construct was used for the simultaneous expression of the Ku70 and Ku80 proteins in E. coli. Proteins were chromatographically purified with a 6His-tag at the N terminus of the Ku80 subunit. Recombinant Ku protein was produced in bacterial cell culture, purified, and its DNA-binding activity was characterized.
Isolation was performed using affinity chromatography on Ni^2+-NTA resin. The presence of Ku and impurities was monitored using SDS-PAGE and Western blot analysis. The testing of substances as potential inhibitors of the interaction of the Ku heterodimer with DNA was carried out using the gel inhibition assay.
The testing of substances as potential inhibitors of the interaction of the Ku heterodimer with DNA was carried out using the EMSA. […] The result was visualized by radioautography on a Typhoon FLA 9500 PhosphorImager (GE Healthcare Technologies, Chicago, IL, USA). The counting of radioautograms was performed using QuantityOne 4.6.6 software (Bio-Rad, Hercules, CA, USA). The calculation of IC50 parameters was carried out by Prism 8.0.1 software (GraphPad Software, San-Diego, CA, USA).

[2] = Water solubility and stability of hydrazones and alginate microgels; assay type: physicochemical; conditions: preliminary studies
Description: The expected mass loading of microgels was 33% (5.0 mg of alginate + 2.5 mg of a sample). A solution of sodium alginate was prepared at a concentration of 3.0 mg/mL. 1.700 mL of sodium alginate solution and 3.283 mL of distilled water were added to the beaker and an equimolar copper sulfate solution (17.0 μL) was added dropwise and stirred for 30 min. Then, concentrated hydrochloric acid was dissolved in 250 μL of the polymer solution for 20 min while heating to 50 °C until the solid residue was completely dissolved. The resulting solution of I was added dropwise to the Cu^2+–alginate microgel solution and stirred for 24 h; then, the acid was neutralized with a concentrated NaOH aq. solution. The resulting solutions were purified using flow dialysis. Microgels with substances were lyophilized until a fully dry pinkish powder was obtained.

T1 sequence (P12956 whole entry): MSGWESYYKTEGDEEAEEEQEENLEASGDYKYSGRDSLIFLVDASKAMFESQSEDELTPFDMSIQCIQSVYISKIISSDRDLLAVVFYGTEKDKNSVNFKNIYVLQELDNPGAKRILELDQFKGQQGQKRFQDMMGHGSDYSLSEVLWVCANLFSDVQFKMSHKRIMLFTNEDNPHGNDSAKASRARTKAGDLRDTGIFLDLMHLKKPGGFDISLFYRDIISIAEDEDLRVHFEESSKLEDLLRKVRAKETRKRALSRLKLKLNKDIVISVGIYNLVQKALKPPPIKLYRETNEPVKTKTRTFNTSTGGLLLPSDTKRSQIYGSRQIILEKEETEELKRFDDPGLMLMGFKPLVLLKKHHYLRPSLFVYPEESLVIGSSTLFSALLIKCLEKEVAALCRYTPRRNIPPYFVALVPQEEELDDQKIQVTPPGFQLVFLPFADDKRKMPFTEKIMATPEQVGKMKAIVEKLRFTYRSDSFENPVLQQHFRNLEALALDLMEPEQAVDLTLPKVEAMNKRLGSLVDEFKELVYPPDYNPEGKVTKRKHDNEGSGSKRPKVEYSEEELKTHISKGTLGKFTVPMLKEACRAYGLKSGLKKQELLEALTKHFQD
T1 sequence (P13010 whole entry partner): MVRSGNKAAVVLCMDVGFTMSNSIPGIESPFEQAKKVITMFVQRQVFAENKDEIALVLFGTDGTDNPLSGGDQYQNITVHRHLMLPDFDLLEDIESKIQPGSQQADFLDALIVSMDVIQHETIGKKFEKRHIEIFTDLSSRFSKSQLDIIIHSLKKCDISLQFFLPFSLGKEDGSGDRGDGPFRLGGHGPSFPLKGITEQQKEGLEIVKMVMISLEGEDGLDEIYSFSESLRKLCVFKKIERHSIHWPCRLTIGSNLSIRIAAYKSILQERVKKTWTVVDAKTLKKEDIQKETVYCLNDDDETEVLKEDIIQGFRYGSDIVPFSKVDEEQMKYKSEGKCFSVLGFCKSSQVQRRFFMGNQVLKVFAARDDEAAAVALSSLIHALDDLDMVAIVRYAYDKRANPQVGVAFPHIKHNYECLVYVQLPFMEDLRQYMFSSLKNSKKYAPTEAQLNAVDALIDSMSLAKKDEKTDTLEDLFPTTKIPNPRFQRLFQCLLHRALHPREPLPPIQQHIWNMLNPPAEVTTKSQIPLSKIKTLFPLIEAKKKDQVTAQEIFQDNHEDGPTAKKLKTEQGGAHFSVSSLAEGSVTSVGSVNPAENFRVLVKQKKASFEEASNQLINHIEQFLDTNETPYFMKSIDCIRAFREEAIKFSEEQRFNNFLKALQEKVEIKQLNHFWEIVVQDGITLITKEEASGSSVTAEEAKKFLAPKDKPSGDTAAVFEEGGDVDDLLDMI

Oc1c(N/N=C/c2ccccc2)ccc2cccnc12 [Compound I, 7-(2-Benzylidenohydrazinyl)-8-hydroxyquinoline]
CC50 at 48 h (MTT cytotoxicity assay): 50.5 ± 2.5 µM
IC50 [1]: 0.77 ± 0.03 µM
IC50 (Ku70–DNA complex): 40 ± 10 µM
solubility [2]: ~2300 µg/mL (≈ 8.74 mM)

Oc1c(N/N=C/c2ccc(F)cc2)ccc2cccnc12 [VI, 7-(4-Fluorobenzylidenohydrazinyl)-8-hydroxyquinoline]
CC50 at 48 h (MTT cytotoxicity assay): 45.5 ± 3.6 µM
IC50 [1]: < 0.5 µM
IC50 (Ku70–DNA complex): > 250 µM

O=[N+]([O-])c1ccc(/C=N/Nc2ccc3cccnc3c2O)cc1 [II, 7-(4-Nitrobenzylidenohydrazinyl)-8-hydroxyquinoline]
CC50 at 48 h (MTT cytotoxicity assay): 123 ± 13.2 µM
IC50 [1]: 1.2 ± 0.08 µM
IC50 (Ku70–DNA complex): 50 ± 20 µM

Oc1c(N/N=C/c2ccc(Br)c(Br)c2)ccc2cccnc12 [V, 7-(3,4-Dibromobenzylidenohydrazinyl)-8-hydroxyquinoline]
CC50 at 48 h (MTT cytotoxicity assay): 120 ± 7.5 µM
IC50 [1]: < 0.5 µM
IC50 (Ku70–DNA complex): 25 ± 8 µM

COc1ccc(/C=N/Nc2ccc3cccnc3c2O)cc1 [IV, 7-(4-Methoxybenzylidenohydrazinyl)-8-hydroxyquinoline]
CC50 at 48 h (MTT cytotoxicity assay): 47 ± 3.2 µM
IC50 [1]: 0.67 ± 0.05 µM
IC50 (Ku70–DNA complex): 80 ± 30 µM

O=[N+]([O-])c1cccc(/C=N/Nc2ccc3cccnc3c2O)c1 [III, 7-(3-Nitrobenzylidenohydrazinyl)-8-hydroxyquinoline]
CC50 at 48 h (MTT cytotoxicity assay): 38 ± 9.1 µM
IC50 [1]: 1.4 ± 0.33 µM
IC50 (Ku70–DNA complex): 60 ± 20 µM
